Test results as given in EP3763715A1, “HARRINGTONINES SALTS, IN PARTICULAR RETINOATES, THEIR PROCESS OF PREPARATION AND THEIR USES IN THE TREATMENT OF LEUKEMIAS, CANCERS, AUTOIMMUNE, SKIN, ALZHEIMER'S AND INFLAMMATORY BOWEL DISEASES AND VIRAL INFECTIONS, COMBINED WITH MYELOPOIESIS STIMULATING AGENTS” (Robin, Jean-Pierre, priority 2019, dated 2021).

Key:
[1] = Solubility determination in water; format: physicochemical; details: 25° C., semi-quantitative
Experimental: Solubility in water at 25° C. was measured semi-quantitatively at a threshold of 5 g per 100 mL. All the homoharringtonine salts described in the below examples, unless otherwise stated, are soluble at this threshold. Homoharringtonine base itself is soluble at a threshold lower than 0.1 g per mL.

MDA-MB-468 = assay: Testing on breast cancer cell lines, sulforhodamine B (SRB) cell viability assay; format: cell-based, human; details: MDA-MB-468 breast cancer cells, preliminary screening, read-out: M DA-MB-468 (BC) IC50
Experimental: Operating Procedure were performed as described in the recent paper of Yakhni et al [Yakhni AM J CANCER RES 2019; 9(5) in press "Homoharringtonine, on approved anti-leukemia drug, suppresses triple negative breast cancer growth through a rapid reduction of anti-apoptotic protein abundance"]
The cell lines used in this study were MDA-MB-231 (ATCC® HTB-26™), MDA-MB-468 (ATCC® HTB-132™), MDA-MB-157 (ATCC® HTB-24™) and CAL-51. Those lines were chosen to represent the BRCA1/2 non-mutated TNBC transcriptomic subtypes, currently most in need of efficacious treatment due to lower sensibility of BRCA1 wild-type TNBC to the DNA-damaging chemotherapy (Masuda et al., Clin Cancer Res. 2013, p5533; Jiang et al., PLoS Med. 2016, pe1002193; Park et al. ESMO Open. 2018, pe000357). CAL-51 line represents the mesenchymal transcriptomic subtype whereas MDA-MB-157 and MDA-MB-231 represent the mesenchymal stem-like subtype (Lehmann et al. J Clin Invest. 2011, p2750). MDA-MB-468 was used as a model of aggressive, PTEN-negative TNBC, with hyperactivated EGFR signaling pathway due to EGFR amplification (Filmus et al., Biochem Biophys Res Commun. 1985, p898). MDA-MB-468 transcriptome classifies it into the basal-like 1 subtype (49). The MDA lines were purchased from the American Type Culture Collection (ATCC, Manassas, VA, USA). The CAL-51 was kindly provided by Dr Gerard Milano, from the Centre Antoine Lacassagne, Nice, France, where the line has been established (Gioanni et al., Br J Cancer 1990, p8). After initial expansion, the cell line stock vials were conserved, in liquid nitrogen, at the Biological Resource Center of Jean Perrin Comprehensive Cancer Center (biobank ID BB-0033-00075, Clermont-Ferrand, France). The MDA cell lines were cultured in the Leibovitz L-15 medium, whereas CAL-51 line was maintained in DMEM (both media from Invitrogen Life Technologies, Carlsbad, CA, USA). The media were supplemented with 10% heat-inactivated fetal bovine serum and […] gentamicin. CAL-51 line was kept at 37°C, in a humidified atmosphere with 5% CO2; the MDA lines were kept under the same conditions, however, without CO2, in a free gas exchange with atmospheric air. All cell lines were maintained in monolayer culture, in the sub-confluent status, with no more 30 passages of the cells thawed from the stock vial.
Homoharringtonine was supplied by LeukePharma Inc. (Houston, TX, USA) as water-soluble, crystalline tartaric acid salt. Initial stock solution of HHT-tartrate was prepared at 10 mM in sterile deionized water, aliquoted and kept at -80°C. For each experiment, a fresh HHT solution was prepared by dissolving the HHT stock in phosphate-buffered saline (PBS, GIBCO™, Invitrogen, Cergy-Pontoise, France).
Cell viability was assessed using the sulforhodamine B (SRB) assay (Sigma-Aldrich, St Louis, MO, USA) according to the method described by Vichai and Kirtikara (Nat Protoc. 2006, p1112). Cells were seeded in 96-well plates, at 5x10^3 or 1x10^3 cells/well (the MDA cell lines and CAL-51, respectively), left overnight to adhere and then treated with growing concentrations of HHT for 24h, 48h or 72h. After incubation with the drug, cells were washed twice with PBS and left for 72 h in the corresponding complete culture medium. Then the cells were fixed with trichloroacetic acid (final concentration 10%) at 4°C for 1 h, followed with plate washing with water five times, air drying and staining with 0.4% SRB dissolved in 1% acetic acid, at room temperature, for 30 min. The plates were subsequently washed four times with 1% acetic acid to remove unbound stain. To solubilize the protein-bound dye, 10 mM Tris base solution was added to each well. The cell viability, estimated through the present protein biomass, was determined by measuring optical density of the dye, using a spectrophotometer at wavelength of 540 nm (BMG Labtech, Ortenberg, Germany).
Preliminary screening using these tumor cell lines are gathered in table 1.

HL-60 cell line = assay: Testing on HL-60 leukemia cell line (MTT cytotoxicity); format: cell-based, human; details: HL-60 cells, medium with 20% fetal bovine serum, preliminary screening, read-out: HL60 (APL) IC50
Experimental: (§1) Retinoates of harringtonines described in this invention were tested on K562 cell line which is derived from the pleural effusion of a person with chronic myelogenous leukemia (CML, bcr-abl positive) in terminal blast crises (Lozzio and Lozzio, Blood, 1975, p321). The cell line was purchased from ATCC (American Tissue Culture Collection) and grown in RPMI medium supplemented with 10% heat-inactivated fetal calf serum, 2 mmol/L glutamine, […] penicillin and […] streptomycin. All tested products were initially dissolved in 2N HCl (pH=2) (alkaloid base) or in aqueous solvent (salt) or in DMSO (retinoids), supplemented with ultrasound treatment during 1 h. Working concentrations were made by dilution in culture medium (pH 7). Cells in exponential growth phase were placed into 96-microwell plates in concentration 3x10^4/mL (total volume 200 µL/well) and incubated with drugs for 72 h at 37° C. in 5% CO2 humidified atmosphere. Following incubation, 28 µL of MTT 3-(4,5 dimethylthiazol-2-yl)-2,5 tetrazolium bromide] dye solution (Sigma, St. Louis, Mo.) was added to each well. During the following 6 h of incubation at 37° C., the purple formazan product was formed by conversion of the yellow MTT salt in the mitochondria of the viable cells. The resulting precipitate was dissolved in DMSO and the amount of converted MTT was quantified in an ELISA reader (MR 5000, Dynatech). Each product was tested in triplicate (3x8 wells). Every test contained at least one plate with HHT as control, added in the same concentration as the tested products.
Retinoates of harringtonines described in this invention were tested on HL-60 cell line, derived from acute promyelocytic leukemia (APL) cells. HL-60 is a promyelocytic cell line derived by S.J. Collins, et al. (Proc. Natl. Acad. Sci. USA 1978 p2458). Peripheral blood leukocytes were obtained by leukopheresis from a person with APL (Gallagher R, et al. Blood 1978, p713) The cell line was purchased from ATCC (American Tissue Culture Collection) and the base growth medium was also completed with fetal bovine serum but at a final concentration of 20%, otherwise the same method than the one of example 10 was used.
Preliminary screening using this tumor cell lines are gathered in table 1.

K562 cell line = assay: Testing on K562 leukemia cell line (MTT cytotoxicity); format: cell-based, human; details: K562 cells, 72 h incubation, preliminary screening, read-out: K562 (CML) IC50
Experimental: as §1

Compound | solubility [1] [mg/mL] | IC50 (MDA-MB-468) [nM] | IC50 (HL-60 cell line) [nM] | IC50 (K562 cell line) [nM]
COC(=O)C[C@](O)(CCCC(C)(C)O)C(=O)O[C@@H]1C(OC)=C[C@]23CCCN2CCc2cc4c(cc2[C@H]13)OCO4 [Homoharringtonine base, Homoharringtonine] | < 100 | – | – | –
CC1(C)C(=O)C(C)(C)c2cc(C(=O)Nc3ccc(C(=O)O)cc3)ccc21.COC(=O)CC(O)(CCCC(C)(C)O)C(=O)O[C@@H]1C(OC)=C[C@]23CCCN2CCc2cc4c(cc2[C@H]13)OCO4 (stereo partly drawn) [Example 15, Butanedioic acid, 2-hydroxy-2-(4-hydroxy-4-methylpentyl)-, 1-[(1S,3aR,14bS)-1,5,6,8,9,14b-hexahydro-2-methoxy-4H-cyclopenta[a][1,3]dioxolo[4,5-h]pyrrolo[2,1-b][3]benzazepin-1-yl]4-methyl ester, 4-[[(2,3-Dihydro-1,1,3,3-tetramethyl-2-oxo-1H-inden-5-yl)carbonyl]amino]benzoate] | – | < 50 | < 100 | < 50
CC1(C)CCC(C)(C)c2cc(NC(=O)c3ccc(C(=O)O)cc3)ccc21.COC(=O)CC(O)(CCCC(C)(C)O)C(=O)OC1C(OC)=CC23CCCN2CCc2cc4c(cc2C13)OCO4 (stereo not shown) [Example 5, homoharringtonine tamibarotenoate] | – | < 20 | < 50 | < 20
CC1=C(/C=C/C(C)=C/C=C/C(C)=C/C(=O)O)C(C)(C)CCC1.COC(=O)C[C@@]1(C(=O)O[C@@H]2C(OC)=C[C@]34CCCN3CCc3cc5c(cc3[C@H]24)OCO5)CCCC(C)(C)O1 (relative stereo) [Example 18, Anhydrohomoharringtonine all-trans-retinoate] | – | < 50 | < 100 | < 50
C=C(c1ccc(C(=O)O)cc1)c1cc2c(cc1C)C(C)(C)CCC2(C)C.COC(=O)C[C@](O)(CCCC(C)(C)O)C(=O)O[C@@H]1C(OC)=C[C@]23CCCN2CCc2cc4c(cc2[C@H]13)OCO4 [Example 7, homoharringtonine "bexarotenoate"] | – | < 20 | < 20 | < 20
OP5215, Am 580 salt [Example 27] | – | < 10 | < 20 | < 10
OP5215 adarotenoate [Example 28] | – | < 10 | < 20 | < 10
COC(=O)CC(O)(CCCC(C)(C)O)C(=O)O[C@@H]1C(OC)=C[C@]23CCCN2CCc2cc4c(cc2[C@H]13)OCO4.O=C(O)c1ccc(-c2ccc3cc(O)c(C45CC6CC(CC(C6)C4)C5)cc3c2)cc1 (stereo partly drawn) [Example 12, Butanedioic acid, 2-hydroxy-2-(4-hydroxy-4-methylpentyl)-, 1-[(1S,3aR,14bS)-1,5,6,8,9,14b-hexahydro-2-methoxy-4H-cyclopenta[a][1,3]dioxolo[4,5-h]pyrrolo[2,1-b][3]benzazepin-1-yl]4-methyl ester, 4-(6-Hydroxy-7-tricyclo[3.3.1.1^3,7]dec-1-yl-2-naphthalenyl)benzoate] | – | < 50 | < 100 | < 50
OP5215 acitretinate [Example 25] | – | < 20 | < 50 | < 20
OP5215 bexarotenoate [Example 29] | – | < 10 | < 20 | < 10
COC(=O)CC(O)(CCCC(C)(C)O)C(=O)O[C@@H]1C(OC)=C[C@]23CCCN2CCc2cc4c(cc2[C@H]13)OCO4.O=C(O)c1ccc2cc(-c3ccc(O)c(C45CC6CC(CC(C6)C4)C5)c3)ccc2c1 (stereo partly drawn) [Example 11, Butanedioic acid, 2-hydroxy-2-(4-hydroxy-4-methylpentyl)-, 1-[(1S,3aR,14bS)-1,5,6,8,9,14b-hexahydro-2-methoxy-4H-cyclopenta[a][1,3]dioxolo[4,5-h]pyrrolo[2,1-b][3]benzazepin-1-yl]4-methyl ester, 6-[3-(1-adamantyl)-4-hydroxyphenyl]-2-naphtalenecarboxylate] | – | < 50 | < 100 | < 50
